Like-named read-outs stand apart in the source and are kept apart here.
Assays:
Assay in all cases: Ras GTP binding domain inhibition assay (Cy3-GTP/Cy5-GTP competition)
[1] = target: T1, KRas G12D mutant (Homo sapiens, UniProt P01116, G12D); details: 20 μM
T1 construct: fused on or other part: His tag, used for capture on nickel-coated plates
How it was run: (§1)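 His-tagged Ras immobilized on nickel-coated wells in Tris buffer (pH 7.4 or 7.0) with 1 mM MgCl2, 1 mM DTT, 1% DMSO. Compound (20 μM, or serial dilution for IC50) incubated 3 hours at room temperature, ± Sos (residues 556-1049) in final hour. Bound 100 nM Cy3-/Cy5-GTP read after 45 minutes and washing.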

[2] = system: KRas wild type; design: species or system human; details: 20 μM; for KRas wild type: % inh.: without SOS; for KRas wild type % inh.: without SOS (Table 7A)
How it was run: as §1

[3] = system: KRas Q61H mutant; design: species or system human; details: 20 μM
How it was run: as §1

[4] = system: KRas G12C mutant; design: species or system human; details: 20 μM
How it was run: as §1

[5] = with SOS, read-out: KRas G-12D mutant + SOS: % inh.
[6] = without SOS, read-out: KRas G12D mutant: % inh.
[7] = with SOS (Table 7A), read-out: KRas G12D mutant + SOS: % inh.
[8] = without SOS (Table 7A), read-out: KRas G12D mutant: % inh.

Row | SMILES | inhibition at 20 µM [1, 5] [%] | inhibition at 20 µM [1, 6] [%] | KRas wild type + SOS: % inh. ([2]; with SOS) | KRas wild type: % inh. [2] | KRas Q61H mutant + SOS: % inh. ([3]; with SOS) | KRas Q61H mutant: % inh. ([3]; without SOS) | KRas G12C mutant + SOS: % inh. ([4]; with SOS) | KRas G12C mutant: % inh. ([4]; without SOS) | inhibition at 20 µM [1, 7] [%] | inhibition at 20 µM [1, 8] [%] | KRas wild type + SOS: % inh. ([2]; with SOS (Table 7A)) | KRas wild type % inh. [2] | KRas Q61H mutant + SOS: % inh. ([3]; with SOS (Table 7A)) | KRas Q61H mutant: % inh. ([3]; without SOS (Table 7A)) | KRas G12C mutant + SOS: % inh. ([4]; with SOS (Table 7A)) | KRas G12C mutant: % inh. ([4]; without SOS (Table 7A))
1 | COC1CCN(c2nc(-c3nccn3C)nc3sc(-c4ccccc4Cl)c(-c4cscn4)c23)C1 (centres unmarked) [drawing 849] | 51 to 75 | 51 to 75 | C (51-75% inhibition) | C (51-75% inhibition) | C (51-75% inhibition) | B (26-50% inhibition) | C (51-75% inhibition) | B (26-50% inhibition) | – | – | – | – | – | – | – | –
2 | CO[C@H]1C[C@H](Nc2nc(-c3nccn3C)nc3sc(-c4ccn(C)n4)c(-c4ccccc4)c23)C1 [drawing 906] | – | – | – | – | – | – | – | – | 51 to 75 | 26 to 50 | D (76-100% inhibition) | C (51-75% inhibition) | D (76-100% inhibition) | C (51-75% inhibition) | D (76-100% inhibition) | C (51-75% inhibition)
3 | CCn1cc(Nc2nc(-c3ccccn3)nc(O)c2OC)cn1 [drawing 881] | – | – | – | – | – | – | – | – | 26 to 50 | 26 to 50 | B (26-50% inhibition) | C (51-75% inhibition) | B (26-50% inhibition) | A (1-25% inhibition) | B (26-50% inhibition) | C (51-75% inhibition)
4 | CO[C@H]1CC[C@@H](Nc2nc(-c3nccn3C)nc3sc(-c4ccn(C)n4)c(C)c23)C1 [drawing 915] | – | – | – | – | – | – | – | – | 51 to 75 | 26 to 50 | D (76-100% inhibition) | C (51-75% inhibition) | D (76-100% inhibition) | C (51-75% inhibition) | D (76-100% inhibition) | C (51-75% inhibition)
5 | CO[C@H]1C[C@@H](Nc2nc(-c3nccn3C)nc3sc(-c4ccn(C)n4)c(-c4ccccc4)c23)C1.Cl | – | – | – | – | – | – | – | – | 51 to 75 | 26 to 50 | D (76-100% inhibition) | C (51-75% inhibition) | D (76-100% inhibition) | C (51-75% inhibition) | D (76-100% inhibition) | C (51-75% inhibition)

Results, then the compound that gave them:

Row | inhibition at 20 µM [1, 5] [%] | inhibition at 20 µM [1, 6] [%] | KRas wild type + SOS: % inh. ([2]; with SOS) | KRas wild type: % inh. [2] | KRas Q61H mutant + SOS: % inh. ([3]; with SOS) | KRas Q61H mutant: % inh. ([3]; without SOS) | KRas G12C mutant + SOS: % inh. ([4]; with SOS) | KRas G12C mutant: % inh. ([4]; without SOS) | inhibition at 20 µM [1, 7] [%] | inhibition at 20 µM [1, 8] [%] | KRas wild type + SOS: % inh. ([2]; with SOS (Table 7A)) | KRas wild type % inh. [2] | KRas Q61H mutant + SOS: % inh. ([3]; with SOS (Table 7A)) | KRas Q61H mutant: % inh. ([3]; without SOS (Table 7A)) | KRas G12C mutant + SOS: % inh. ([4]; with SOS (Table 7A)) | KRas G12C mutant: % inh. ([4]; without SOS (Table 7A)) | SMILES
6 | 51 to 75 | 51 to 75 | C (51-75% inhibition) | C (51-75% inhibition) | C (51-75% inhibition) | C (51-75% inhibition) | D (76-100% inhibition) | C (51-75% inhibition) | – | – | – | – | – | – | – | – | COc1cc(-c2sc3nc(-c4nccn4C)nc(N4CCC(OC)C4)c3c2-c2ccccc2)ccn1.Cl (centres unmarked)
7 | 26 to 50 | 26 to 50 | C (51-75% inhibition) | A (1-25% inhibition) | C (51-75% inhibition) | B (26-50% inhibition) | C (51-75% inhibition) | A (1-25% inhibition) | – | – | – | – | – | – | – | – | CO[C@@H]1CCC(Nc2nc(-c3nccn3C)nc3sc(-c4ccn(C)n4)c(-c4ccccc4)c23)C1 (some centres unmarked) [drawing 859]

Source: patent US20250296938A1, “Compounds that Interact with the Ras Superfamily for the Treatment of Cancers, Inflammatory Diseases, Rasopathies, and Fibrotic Disease” (SHY Therapeutics, LLC, priority 2018, published 2025)
